This note sets out measurements from ChEMBL document CHEMBL5728939, “Myocyte enhancer factor 2 (MEF2) modulators” (2022).

Test [1] deals with Histone deacetylase 4/Myocyte-specific enhancer factor 2D (Homo sapiens, UniProt P56524+Q14814). As to the kind of experiment: Inhibitory Effects of the Compounds on MEF2D and HDAC4 Protein Interactions: Detection of MEF2D and HDAC4 interactions. In this mammalian two-hybrid assay, HDAC4 and MEF2D proteins were used. […] Human epithelial carcinoma cells (HeLa) were co-transfected with the two DNA constructs (GAL4-MEF2D and HDAC4-VP16) and a reporter plasmid (Gal4Luc). […] MEF2D and HDAC4 protein interactions were detected as a result of the GAL4-MEF2D and HDAC4-VP16 protein complex binding a DNA promoter on the reporter plasmid (Gal4Luc) and driving cellular expression of a luciferase gene. The measured luciferase protein signal was proportional to the amount of MEF2D and HDAC4 protein interactions occurring with the cell.

Test [2] concerns the target Histone acetyltransferase p300/Myocyte-specific enhancer factor 2D (Homo sapiens, UniProt Q09472+Q14814). Description: Inhibitory Effects of the Compounds on MEF2D and P300 Protein Interactions: Detection of MEF2D and P300 interactions. The same system that was used in Example 19 is used in here to detect MEF2D and P300 interactions. In this assay, two separate DNA constructs were made with MEF2D fused with the GAL4 DNA binding domain (GAL4-MEF2D) and P300 fused with the viral transactivator VP-16 […] epithelial carcinoma cells (HeLa) were co-transfected with the two DNA constructs (GAL4-MEF2D and P300-VP16) and a reporter plasmid (Gal4Luc). […] MEF2D and P300 protein interactions were detected as a result of the GAL4-MEF2D and P300-VP16 protein complex binding a DNA promoter on the reporter plasmid (Gal4Luc) and driving cellular expression of a luciferase gene. The measured luciferase protein signal was proportional to the amount of MEF2D and P300 protein interactions occurring with the cell.

SMILES strings stand for the structures.

Histone acetyltransferase p300/Myocyte-specific enhancer factor 2D, sequence (Q09472 whole entry, the tested form may be a part): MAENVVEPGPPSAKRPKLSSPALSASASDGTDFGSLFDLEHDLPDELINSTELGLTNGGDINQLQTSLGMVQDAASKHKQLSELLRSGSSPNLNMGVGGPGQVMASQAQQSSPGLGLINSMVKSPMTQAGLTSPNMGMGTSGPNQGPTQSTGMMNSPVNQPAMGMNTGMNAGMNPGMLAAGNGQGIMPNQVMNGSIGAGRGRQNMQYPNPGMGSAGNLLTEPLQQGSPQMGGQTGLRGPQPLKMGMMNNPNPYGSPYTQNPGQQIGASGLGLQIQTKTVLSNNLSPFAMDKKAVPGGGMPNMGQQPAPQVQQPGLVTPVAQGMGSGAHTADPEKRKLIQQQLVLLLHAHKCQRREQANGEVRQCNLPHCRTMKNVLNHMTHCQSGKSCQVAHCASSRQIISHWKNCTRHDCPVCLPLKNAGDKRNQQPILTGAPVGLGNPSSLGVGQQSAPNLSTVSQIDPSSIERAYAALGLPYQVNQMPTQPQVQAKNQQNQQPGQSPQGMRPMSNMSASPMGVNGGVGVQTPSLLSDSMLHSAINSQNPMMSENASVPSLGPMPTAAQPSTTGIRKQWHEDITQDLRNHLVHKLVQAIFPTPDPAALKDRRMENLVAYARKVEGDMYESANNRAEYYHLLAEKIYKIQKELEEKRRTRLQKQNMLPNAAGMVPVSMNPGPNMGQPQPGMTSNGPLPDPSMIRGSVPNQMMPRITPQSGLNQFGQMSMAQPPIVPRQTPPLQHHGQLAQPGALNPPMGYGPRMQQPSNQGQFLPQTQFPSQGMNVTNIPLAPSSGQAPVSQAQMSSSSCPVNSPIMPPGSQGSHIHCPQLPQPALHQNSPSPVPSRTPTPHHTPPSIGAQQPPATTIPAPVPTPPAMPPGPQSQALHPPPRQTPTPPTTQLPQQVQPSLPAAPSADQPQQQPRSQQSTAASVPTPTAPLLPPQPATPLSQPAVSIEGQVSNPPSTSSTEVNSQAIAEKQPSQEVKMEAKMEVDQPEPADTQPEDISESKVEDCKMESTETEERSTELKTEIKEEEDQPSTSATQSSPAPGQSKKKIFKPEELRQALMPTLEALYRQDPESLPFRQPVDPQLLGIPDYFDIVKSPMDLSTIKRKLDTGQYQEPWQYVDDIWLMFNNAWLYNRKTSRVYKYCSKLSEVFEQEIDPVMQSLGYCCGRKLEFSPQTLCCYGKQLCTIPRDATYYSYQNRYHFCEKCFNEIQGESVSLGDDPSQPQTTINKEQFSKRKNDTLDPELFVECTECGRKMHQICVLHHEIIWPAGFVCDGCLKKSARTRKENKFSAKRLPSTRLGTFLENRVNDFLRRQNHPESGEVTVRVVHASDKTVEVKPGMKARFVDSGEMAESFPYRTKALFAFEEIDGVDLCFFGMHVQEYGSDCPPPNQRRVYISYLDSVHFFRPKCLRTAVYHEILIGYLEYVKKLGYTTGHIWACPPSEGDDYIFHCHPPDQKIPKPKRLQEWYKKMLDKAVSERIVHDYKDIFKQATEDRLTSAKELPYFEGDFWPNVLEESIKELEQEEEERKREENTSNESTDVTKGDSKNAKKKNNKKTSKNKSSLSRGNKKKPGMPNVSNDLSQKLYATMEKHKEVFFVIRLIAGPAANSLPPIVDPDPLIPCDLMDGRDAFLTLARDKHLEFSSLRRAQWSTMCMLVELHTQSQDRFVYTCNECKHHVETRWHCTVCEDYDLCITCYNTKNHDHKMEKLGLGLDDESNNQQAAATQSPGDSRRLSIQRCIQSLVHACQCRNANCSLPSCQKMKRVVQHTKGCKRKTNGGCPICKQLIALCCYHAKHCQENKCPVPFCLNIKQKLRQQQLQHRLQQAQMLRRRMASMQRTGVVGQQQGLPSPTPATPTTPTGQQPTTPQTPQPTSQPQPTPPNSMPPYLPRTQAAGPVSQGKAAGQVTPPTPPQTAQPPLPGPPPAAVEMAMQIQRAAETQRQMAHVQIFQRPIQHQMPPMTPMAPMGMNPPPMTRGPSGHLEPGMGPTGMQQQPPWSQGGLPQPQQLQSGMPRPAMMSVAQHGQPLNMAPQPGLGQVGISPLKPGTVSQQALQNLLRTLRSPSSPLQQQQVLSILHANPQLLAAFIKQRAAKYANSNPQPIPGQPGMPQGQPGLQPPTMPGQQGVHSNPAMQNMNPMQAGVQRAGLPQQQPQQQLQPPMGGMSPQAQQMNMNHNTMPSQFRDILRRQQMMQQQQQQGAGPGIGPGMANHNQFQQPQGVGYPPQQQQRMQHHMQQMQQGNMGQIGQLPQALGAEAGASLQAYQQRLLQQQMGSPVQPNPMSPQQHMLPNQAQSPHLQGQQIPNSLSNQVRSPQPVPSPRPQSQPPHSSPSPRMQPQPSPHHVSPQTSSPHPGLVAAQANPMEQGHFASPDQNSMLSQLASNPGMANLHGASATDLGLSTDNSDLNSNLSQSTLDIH
Histone acetyltransferase p300/Myocyte-specific enhancer factor 2D, sequence (Q14814 whole entry, the tested form may be a part): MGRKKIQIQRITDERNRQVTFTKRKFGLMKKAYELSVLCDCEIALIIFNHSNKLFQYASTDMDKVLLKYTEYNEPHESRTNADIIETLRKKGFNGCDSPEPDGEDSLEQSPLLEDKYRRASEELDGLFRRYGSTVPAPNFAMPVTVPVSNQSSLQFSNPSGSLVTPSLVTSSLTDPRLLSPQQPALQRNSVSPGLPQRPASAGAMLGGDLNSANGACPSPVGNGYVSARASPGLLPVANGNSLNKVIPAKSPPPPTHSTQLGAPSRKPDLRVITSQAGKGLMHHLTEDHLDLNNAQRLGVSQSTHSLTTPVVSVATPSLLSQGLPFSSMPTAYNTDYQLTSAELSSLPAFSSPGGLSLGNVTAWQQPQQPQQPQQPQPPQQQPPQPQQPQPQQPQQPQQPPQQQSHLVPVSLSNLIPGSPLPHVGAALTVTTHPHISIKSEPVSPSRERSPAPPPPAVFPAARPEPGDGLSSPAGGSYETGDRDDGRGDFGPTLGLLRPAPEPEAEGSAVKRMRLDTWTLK
Histone deacetylase 4/Myocyte-specific enhancer factor 2D, sequence (P56524 whole entry, the tested form may be a part): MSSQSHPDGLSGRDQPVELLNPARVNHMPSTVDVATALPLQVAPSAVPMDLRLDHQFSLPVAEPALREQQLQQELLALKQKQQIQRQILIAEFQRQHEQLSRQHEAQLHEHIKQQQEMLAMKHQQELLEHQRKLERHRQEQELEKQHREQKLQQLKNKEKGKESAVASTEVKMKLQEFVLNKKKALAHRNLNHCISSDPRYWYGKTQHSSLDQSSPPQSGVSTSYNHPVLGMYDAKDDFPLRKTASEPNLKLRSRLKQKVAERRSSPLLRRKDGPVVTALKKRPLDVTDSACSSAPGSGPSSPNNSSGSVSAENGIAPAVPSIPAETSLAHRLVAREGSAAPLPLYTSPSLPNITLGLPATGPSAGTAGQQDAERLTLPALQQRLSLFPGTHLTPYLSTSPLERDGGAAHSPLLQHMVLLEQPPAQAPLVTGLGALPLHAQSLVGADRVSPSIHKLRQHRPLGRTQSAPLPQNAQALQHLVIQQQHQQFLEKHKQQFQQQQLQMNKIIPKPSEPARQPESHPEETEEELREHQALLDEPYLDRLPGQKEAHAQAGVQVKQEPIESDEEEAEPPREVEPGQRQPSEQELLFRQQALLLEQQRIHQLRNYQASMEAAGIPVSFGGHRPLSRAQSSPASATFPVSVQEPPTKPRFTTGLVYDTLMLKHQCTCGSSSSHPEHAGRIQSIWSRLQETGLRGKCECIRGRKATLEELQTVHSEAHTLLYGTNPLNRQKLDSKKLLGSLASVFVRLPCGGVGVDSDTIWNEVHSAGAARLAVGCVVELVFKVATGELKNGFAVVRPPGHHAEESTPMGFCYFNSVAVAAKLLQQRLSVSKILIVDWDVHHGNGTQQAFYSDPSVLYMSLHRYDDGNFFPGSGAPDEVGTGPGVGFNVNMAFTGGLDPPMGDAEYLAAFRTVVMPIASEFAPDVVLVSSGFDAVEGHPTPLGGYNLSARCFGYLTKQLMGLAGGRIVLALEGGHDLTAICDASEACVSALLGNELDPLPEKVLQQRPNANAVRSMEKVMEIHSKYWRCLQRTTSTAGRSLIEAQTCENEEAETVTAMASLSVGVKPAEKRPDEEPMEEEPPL
Histone deacetylase 4/Myocyte-specific enhancer factor 2D, sequence (Q14814 whole entry, the tested form may be a part): as the sequence (Q14814 whole entry, the tested form may be a part) above

Turning to `Cc1[nH]c2ccccc2c1CCNCc1cccc(/C=C/C(=O)Nc2ccccc2N)c1`, the IC50 (as a rule, the point on the concentration scale where inhibition reaches its midpoint) was found to be 510 nM in test [1] and 270 nM in test [2].

As for `Nc1ccccc1NC(=O)CCCCC(NC(=O)c1ccccc1)C(=O)Nc1ccccc1` (stereo unspecified), the results for the half-inhibitory concentration (IC50) in test [1] and in test [2] were 800 nM and 700 nM, respectively.

With `Nc1ccccc1NC(=O)/C=C/c1cccc(CNc2ccc3ccccc3c2)c1`, the half-maximal inhibitory concentration (IC50) amounted to 7270 nM in test [1] and 720 nM in test [2].
